Data set [1] can be described thus: Antiproliferative activity against human Th1 cells by trypan blue exclusion assay. In kind it is functional, cell-based.
A short description of data set [2]: Antiproliferative activity against human TH2 cells by trypan blue exclusion assay. In kind it is functional, cell-based.
Data set [3] concerns the target PRMT5/MEP50 complex (Homo sapiens) (UniProt O14744+Q9BQA1). Nature of the data set: Inhibition of human N-terminal FLAG-tagged PRMT5 (2 to end)/human N-terminal His-tagged MEP50 (2 to end) expressed in HEK293 cells at 50 uM using biotinylated H4 derived peptide as substrate preincubated for 15 mins followed by substrate addition measured after 60 mins ibn presence of [3H]SAM by liquid scintillation counting.

For data set [4], the target named is T1, Protein arginine N-methyltransferase 5 (Homo sapiens, UniProt O14744). Nature of the data set: Inhibition of human 6xHis-tagged PRMT5 expressed in bacterial expression system using histone H2A as substrate after 2 hrs in presence of by S-[methyl-3H]adenosylmethionine by liquid scintillation counting.
A short description of data set [5]: Plasma concentration in iv dosed Sprague-Dawley rat administered as single dose. It is filed as ADME, organism-based. The note with it: in vivo.
Data set [6] is described as follows: Plasma concentration in po dosed Sprague-Dawley rat administered as single dose. It is filed as ADME, organism-based. The conditions noted are these: in vivo.
Data set [7] concerns the target T1, Protein arginine N-methyltransferase 5. The data set can be described thus: Inhibition of human PRMT5 expressed in insect cells co-expressing His-tagged MEP50 using Ser-Gly-Arg-Gly- Lys-Gly-Gly-Lys-Gly-Leu-Gly-Lys-Gly-Gly-Ala-Lys-Arg-His-Arg-Lys-Val-NH2 peptide as substrate after 4 hrs in presence of SAM by Transcreene EPIGEN methyltransferase assays.
In the next data set the test system is JeKo-1. The data set can be described thus: Antiproliferative activity against human JeKo1 cells after 3 days by cell titer-glo luminescent cell viability assays. It is filed as functional, cell-based. The note with it: JeKo-1, 72 h. A general note: Cellular ATP, detected with luciferase, serves as a proxy for viable cell number.
Data set [8] deals with Maver1. The data set can be described thus: Antiproliferative activity against human Maver1 cells after 3 days by cell titer-glo luminescent cell viability assays. It is filed as functional, cell-based. The conditions noted are these: Maver1, 72 h.
Data set [9] deals with Z-138. Nature of the data set: Antiproliferative activity against human Z138 cells after 3 days by cell titer-glo luminescent cell viability assays. In kind it is functional, cell-based. The note with it: Z-138, 72 h.
The nature of data set [10]: Plasma clearance in mouse at 2 mg/kg, iv. It is filed as ADME, organism-based.
Data set [11] can be described thus: Volume of distribution in mouse at 2 mg/kg, iv. In kind it is ADME, organism-based. The note with it: in vivo.
The test system of data set [12] is Maver1. The data set can be described thus: Antitumor activity against human Maver1 cells xenografted in SCID mouse assessed as tumor growth inhibition at 200 mg/kg, po BID administered for 21 days. In kind it is functional. The note with it: 504 h, read-out: TGI. Background: A xenograft is tissue or cells of one species grown in another, often human tumour cells in immunodeficient mice.

Data set [13] has as its system Z-138. Nature of the data set: Antitumor activity against human Z138 cells xenografted in SCID mouse assessed as tumor growth inhibition at 200 mg/kg, po BID administered for 21 days. It is filed as functional. The conditions noted are these: Z-138, po, 504 h, read-out: TGI.
Data set [14] in a line: Oral bioavailability in mouse at 10 mg/kg. In kind it is ADME, organism-based. The note with it: in vivo.
Data set [15] concerns the target T1, Protein arginine N-methyltransferase 5. Nature of the data set: Inhibition of PRMT5 (unknown origin) using H4R3 as substrate by HTRF assay.
Another data set concerns the target PRMT5/MEP50 complex (Homo sapiens, UniProt O14744). Nature of the data set: Inhibition of human N-terminal FLAG-tagged PRMT5 (2 to end)/human N-terminal His-tagged MEP50 (2 to end) expressed in HEK293 cells using biotinylated H4 derived peptide as substrate preincubated for 15 mins followed by substrate addition measured after 60 mins in presence of [3H]SAM by liquid scintillation counting. In kind it is cell-based.

Data set [16] deals with T1, Protein arginine N-methyltransferase 5. The data set can be described thus: Inhibition of PRMT5 (unknown origin) at 50 uM by radioactive methylation assay.

Results on ten molecules are retold here after ChEMBL document CHEMBL4229403, “Protein Arginine Methyltransferase 5 (PRMT5) as an Anticancer Target and Its Inhibitor Discovery” (J Med Chem, 2018).

A word on the IC50: it is the concentration needed to halve the response being measured. A word on the inhibition: it is the change of the read-out against control, counted positive when it falls. What is called EC50 is the midpoint of the concentration-response curve. By clearance is commonly meant the volume of plasma or blood freed of the substance per unit of time. A lower clearance goes with a low capacity for elimination. As usually defined, the Vd is the apparent volume that relates the amount in the body to the concentration in plasma or blood. Read a high Vd as extensive tissue distribution. Usually bioavailability stands for dose-corrected exposure relative to a reference, in per cent. Lower therefore signals poor availability.

T1 sequence (O14744 whole entry): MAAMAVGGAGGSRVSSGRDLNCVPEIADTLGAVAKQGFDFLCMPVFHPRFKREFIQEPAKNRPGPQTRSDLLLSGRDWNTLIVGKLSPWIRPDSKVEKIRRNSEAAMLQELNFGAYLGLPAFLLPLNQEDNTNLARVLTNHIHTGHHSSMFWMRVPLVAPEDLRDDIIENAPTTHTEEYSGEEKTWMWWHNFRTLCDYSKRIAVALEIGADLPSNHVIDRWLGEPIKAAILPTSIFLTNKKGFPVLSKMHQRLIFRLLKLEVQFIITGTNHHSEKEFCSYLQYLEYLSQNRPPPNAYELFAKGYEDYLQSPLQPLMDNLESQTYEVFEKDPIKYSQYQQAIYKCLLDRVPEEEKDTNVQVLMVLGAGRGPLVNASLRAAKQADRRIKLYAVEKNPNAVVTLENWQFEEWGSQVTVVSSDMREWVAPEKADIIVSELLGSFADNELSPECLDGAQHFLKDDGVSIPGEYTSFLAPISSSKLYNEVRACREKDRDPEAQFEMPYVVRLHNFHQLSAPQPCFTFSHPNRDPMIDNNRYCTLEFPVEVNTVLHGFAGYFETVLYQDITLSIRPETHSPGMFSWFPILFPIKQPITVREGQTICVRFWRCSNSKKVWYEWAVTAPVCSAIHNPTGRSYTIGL
Sequence of PRMT5/MEP50 complex (O14744 whole entry): as above
Sequence of PRMT5/MEP50 complex (Q9BQA1 whole entry, further chain): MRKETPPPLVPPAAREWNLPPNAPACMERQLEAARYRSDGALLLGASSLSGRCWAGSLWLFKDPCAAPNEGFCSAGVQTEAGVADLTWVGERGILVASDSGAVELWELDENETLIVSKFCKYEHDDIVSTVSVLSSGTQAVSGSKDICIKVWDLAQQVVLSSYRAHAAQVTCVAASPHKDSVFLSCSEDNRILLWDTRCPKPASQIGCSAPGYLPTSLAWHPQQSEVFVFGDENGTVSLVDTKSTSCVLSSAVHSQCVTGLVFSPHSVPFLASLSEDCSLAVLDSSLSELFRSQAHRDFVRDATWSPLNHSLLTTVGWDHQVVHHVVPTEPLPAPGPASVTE

As for `CCn1c2ccc(Br)cc2c2cc(CNCc3ccccc3OC)ccc21`, the results for the IC50 in [1] and in data set [2] were 1.1 µM and 4 µM, respectively.
Turning to `OCCNCc1cccc2ccccc12`, the inhibition in data set [3] is 2%.
For `CCn1c2ccccc2c2cc(CNC3CCCc4ccccc43)ccc21` (stereo not given), the IC50 in data set [4] came to 0.517 µM. Moreover, the concentration in [5] was found to be 7.88 µM; in data set [6], 3.57 µM.
Regarding `O=C(NC[C@H](O)CN1CCc2ccccc2C1)c1ccc(C(=O)N2CCOCC2)cc1`, the IC50 in [7] amounted to 0.109 µM.
With `OC(CNCc1c(OCc2ccccc2)ccc2ccccc12)c1ccccc1` (stereo not given), the EC50 with JeKo-1 is 10.5 µM; with Maver1 [8], 12.7 µM; in the data set with Z-138 [9] it was 12.7 µM.
Take `O=C(NC[C@H](O)CN1CCc2ccccc2C1)c1cc(NC2COC2)ncn1`: the clearance in data set [10] is 30 mL/min/kg. The molecule further showed a Vd in data set [11] of 1.7 L/kg. The inhibition in vivo at 200 mg/kg in the data set on Maver1 [12] and in the data set on Z-138 [13] was over 93% throughout. In data set [14], this molecule displayed a bioavailability of 69%.
For `O=C(NC[C@H](O)CN1CCCCC1)c1cc(NC2COC2)ncn1`, the IC50 in data set [15] was over 10 µM.
Turning to `CC(=O)N1CCC(Oc2nccc(C(=O)NC[C@@H](O)CNC3Cc4ccccc4C3)c2Cl)CC1`, the IC50 in data set [7] was 0.105 µM.
Consider `OCCNCc1c(OCc2ccc(Cl)cc2)ccc2ccccc12`, for which the IC50 at PRMT5/MEP50 complex was 35.6 µM. Besides, in [3], the inhibition is 69%.
In the case of `CCn1c2ccccc2c2cc(CNCc3ccccn3)ccc21`, the inhibition in data set [16] came out at 7.8%.
